Values joined by “and” are separate entries in the source; they are usually repeats but may differ in a detail not shown here. Equal entries are not always repeated. Where two headings read alike, the source gives them in different places.
Legend:
[1] = Shake-flask octanol-water Log D7.4; assay type: physicochemical; details: pH 7.4, octanol-water shake-flask
Experimental: Shake-flask octanol-water distribution coefficient at pH 7.4 (Log D7.4). The aqueous solution used is 10 mM sodium phosphate pH 7.4 buffer. The method has been validated for Log D7.4 ranging from -2 to 5.0.

[2] = test system: S. mansoni adults and somules; experiment: S. mansoni phenotypic assay, adults and somules (severity score); assay type: cell-based, Schistosoma mansoni (NMRI isolate); details: for activity against S. mansoni adults and/or somules: 10 μM; for Adult severity score (10 μM): adults; for Adult severity score (10 μM) / Somule severity score (10 μM): score 0-4; for Somule severity score (10 μM): somules
Experimental: Maintenance of the Schistosoma mansoni life cycle, preparation of somules (post-infective larvae) and adult worms (≥42-days-old), and co-incubation of these stages with test compounds were as described. An NMRI isolate of S. mansoni was used for all whole-organism screens.
Somules (40 units/well/96w round-bottomed plate) or adults (five paris/well/24w plate) were cultured in the presence of compounds at 10 µM and phenotypic changes observed as a function of time using an Zeiss Axiovert A1 inverted microscope (Table S4). A constrained nomenclature was used to describe the effects of compounds on parasites (changes in shape, motility and density). To generate a partially quantitative output for comparing drug effects, each descriptor was awarded a score of 1 and these were summed to a maximum score of 4 [7-10]: evidence of degeneracy or death was awarded the maximum score of 4. For adults specifically, damage to the tegument (outer surface) was also awarded a score of 4 based on the indication that damage to the patrasite’s surface is lethal in vivo [11]. Assays were performed twice and representative data are shown.

[3] = Mouse pharmacokinetics, blood and brain levels after IP dose; assay type: in vivo; details: for Brain level: LLOQ = 25 ng/g; for AUC0-t / Cmax / Tmax: blood
Experimental: NEU-4391 was administered intraperitoneally (IP) to two groups of female NMRI mice (Group 1 n = 3; Group 2 n = 6). The compound was prepared in 1% (v/v) DMSO:99% (v/v) 20% (w/v) sulfobutyl ether-beta-cyclodextrin (SBE-β-CD) (Captisol) in water and the dosing volume was 10 mL/kg for a total dose of 10 mg/kg. Food and tap water were available ad libitum. Following IP dosing, Group 1 blood samples were collected from the tail vein into capillary tubes containing K2EDTA at the following time-points: 0.0833, 0.25, 0.5, 1, 2, 4, 6, 8 and 24 h.
In order to obtain simultaneous blood and brain samples, Group 2 mice were placed under terminal anaesthetic (isoflurane) and blood samples (0.3 mL) collected from the retro-orbital sinus into K2EDTA tubes at 0.5 h (n = 3) and 4 h (n = 3) after compound administration. Immediately following blood sample collection, death was confirmed by cervical dislocation and the brain removed. Aliquots of each blood sample were diluted in an equal volume of water. Mouse brain samples were weighed, water was added at a 1/2 (w/v) ratio (brain/water), and then homogenized. Both blood and brain samples were stored -80°C until analysis.
Diluted blood and brain homogenates were processed under standard liquid-liquid extraction procedures using acetonitrile containing an internal standard (Nifedipine) and analyzed by LC-MS/MS. Non-compartmental analysis was performed using the Phoenix pharmacokinetic software version 1.4 (Certara) and Cmax, tmax, AUClast, AUC, and t1/2 were estimated.

[4] = IP 10 mg/kg single dose, individual mice 001F-003F, 10 mg/kg

CN(C)S(=O)(=O)c1ccc(N/N=C2\C(=O)Nc3ccccc32)cc1 [NEU-2118, (Z)-N,N-Dimethyl-4-(2-(2-oxoindolin-3-ylidene)hydrazinyl)benzenesulfonamide]
logD [1]: 3.4 | activity against S. mansoni adults and/or somules [2]: moderate and variable activity | Adult severity score (10 μM) ([2]; 3h): 3 | Adult severity score (10 μM) ([2]; 6h): 3 | Adult severity score (10 μM) ([2]; 24h): 3 | Adult severity score (10 μM) ([2]; 48h): 3 | Somule severity score (10 μM) ([2]; 24h): 0 | Somule severity score (10 μM) ([2]; 48h): 0

CNS(=O)(=O)c1ccc(N/N=C2\C(=O)Nc3ccccc32)cc1 [NEU-2124, (Z)-N-Methyl-4-(2-(2-oxoindolin-3-ylidene)hydrazinyl)benzenesulfonamide]
logD [1]: 2.8 | activity against S. mansoni adults and/or somules [2]: moderate and variable activity | Adult severity score (10 μM) ([2]; 3h): 2 | Adult severity score (10 μM) ([2]; 6h): 2 | Adult severity score (10 μM) ([2]; 24h): 2 | Adult severity score (10 μM) ([2]; 48h): 2 | Somule severity score (10 μM) ([2]; 24h): 1 | Somule severity score (10 μM) ([2]; 48h): 0

CNS(=O)(=O)c1ccc(N/N=C2\C(=O)Nc3cccc(C=C(C)C)c32)cc1 [NEU-4391, (Z)-N-Methyl-4-(2-(4-(2-methylprop-1-en-1-yl)-2-oxoindolin-3-ylidene)hydrazinyl)benzenesulfonamide]
Brain level ([3]; 0.5 h after IP 10 mg/kg, individual mice N1-N3): <LLOQ | Blood level ([3]; 0.5 h after IP 10 mg/kg, individual mice N1-N3, LLOQ = 25 ng/mL, 10 mg/kg): <LLOQ and 43.3 ng/mL | Brain level ([3]; 4.0 h after IP 10 mg/kg, individual mice N1-N3): <LLOQ | Blood level ([3]; 4.0 h after IP 10 mg/kg, individual mice N1-N3, LLOQ = 25 ng/mL): <LLOQ | Peripheral blood concentrations after 1 h ([3]; IP 10 mg/kg, Fig 6A): below the lower limit of quantitation | concentration in the brain ([3]; IP 10 mg/kg, all time points): below the limit of detection | AUC0-t [3, 4]: 34.5 ng·h/mL and 39.2 ng·h/mL | Cmax [3, 4]: 45.0 ng/mL and 56.5 ng/mL | Tmax [3, 4]: 30 min | concentration at 0.5 h ([3]; female, NMRI, mouse, whole blood, ip, 10 mg/kg, 0.5 h after IP 10 mg/kg, individual mice N1-N3, LLOQ = 25 ng/mL, read-out: Blood level): 50.7 ng/mL | concentration at 0.5 h ([3]; female, NMRI, mouse, whole blood, ip, 10 mg/kg, 0.5 h after IP 10 mg/kg, read-out: Blood level (mean)): 47 ng/mL | AUC0-t ([3]; female, NMRI, mouse, whole blood, ip, 10 mg/kg, IP 10 mg/kg single dose, individual mice 001F-003F, read-out: AUC0-t): 39.3 ng·h/mL | Cmax ([3]; female, NMRI, mouse, whole blood, ip, 10 mg/kg, IP 10 mg/kg single dose, individual mice 001F-003F, read-out: Cmax): 48.9 ng/mL | Tmax ([3]; female, NMRI, mouse, whole blood, ip, 10 mg/kg, IP 10 mg/kg single dose, individual mice 001F-003F, read-out: tmax): 15 min | AUC0-t ([3]; female, NMRI, mouse, whole blood, ip, 10 mg/kg, IP 10 mg/kg, mean of n = 3, read-out: AUC0-t (mean)): 37.7 ng·h/mL | Cmax ([3]; female, NMRI, mouse, whole blood, ip, 10 mg/kg, IP 10 mg/kg, mean of n = 3, read-out: Cmax (mean)): 50.1 ng/mL | Tmax ([3]; female, NMRI, mouse, whole blood, ip, 10 mg/kg, IP 10 mg/kg, n = 3, read-out: tmax (mean row, range)): 15 to 30 min | Cmax ([3]; female, NMRI, mouse, whole blood, ip, 10 mg/kg, IP 10 mg/kg, read-out: Cmax): 130 nM

— PMC6383948, “Evaluation of a class of isatinoids identified from a high-throughput screen of human kinase inhibitors as anti-Sleeping Sickness agents” (PLoS Neglected Tropical Diseases, 2019)
